Source: PubChem BioAssay AID328 (DTP/NCI, 2004)
Where “and” joins values, the source holds several entries; their conditions need not be identical. Equal entries are not always repeated. Inconclusive results and toxic doses are left out.

System: BDF1 mice, P388 leukemia ip, median survival T/C
Assay: NCI In Vivo Anticancer Drug Screen. Data for tumor model P388 Leukemia (intraperitoneal) in B6D2F1 (BDF1) mice
Conditions: endpoint: median survival time, higher = longer survival
How it was run: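 Vehicle-dosed animals serve as the reference; survival of compound-dosed, tumour-implanted mice is divided by it.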

## COc1cc2cc3c4cc(OC)c(OC)cc4cc[n+]3c(C)c2cc1OC
dose: 8.0 mg/kg/injection, schedule: Q03HX024 (ip), vehicle: saline
  T/C: 150 % of control
dose: 12.5 mg/kg/injection, schedule: Q01DX009 (ip), vehicle: Klucel (hydroxypropylcellulose) (HPC)
  T/C: 105 % of control
dose: 12.5 mg/kg/injection, schedule: Q01DX009 (ip), vehicle: saline
  T/C: 165 % of control
dose: 12.5 mg/kg/injection, schedule: Q01DX009 (ip), vehicle: water
  T/C: 195 % of control
dose: 25.0 mg/kg/injection, schedule: Q01DX009 (ip), vehicle: water
  T/C: 195 % of control
dose: 25.0 mg/kg/injection, schedule: Q04DX003 (ip), vehicle: water
  T/C: 170 % of control
dose: 32.0 mg/kg/injection, schedule: Q03HX008 (ip), vehicle: saline
  T/C: 154 % of control
dose: 32.0 mg/kg/injection, schedule: Q03HX024 (ip), vehicle: saline
  T/C: 168 % of control
dose: 37.5 mg/kg/injection, schedule: Q01DX001 (ip), vehicle: saline
  T/C: 154 % of control
dose: 37.5 mg/kg/injection, schedule: Q01DX009 (ip), vehicle: saline
  T/C: 162 % of control
dose: 50.0 mg/kg/injection, schedule: Q01DX009 (ip), vehicle: saline
  T/C: 172 % of control and 181 % of control and 184 % of control
dose: 50.0 mg/kg/injection, schedule: Q01DX009 (ip), vehicle: water
  T/C: 190 % of control
dose: 50.0 mg/kg/injection, schedule: Q04DX003 (ip), vehicle: water
  T/C: 190 % of control
dose: 64.0 mg/kg/injection, schedule: Q01DX009 (ip), vehicle: saline
  T/C: 159 % of control
dose: 64.0 mg/kg/injection, schedule: Q01DX009 (sc), vehicle: saline
  T/C: 100 % of control
dose: 64.0 mg/kg/injection, schedule: Q03HX024 (ip), vehicle: saline
  T/C: 163 % of control
dose: 75.0 mg/kg/injection, schedule: Q01DX001 (ip), vehicle: saline
  T/C: 158 % of control
dose: 75.0 mg/kg/injection, schedule: Q01DX009 (ip), vehicle: saline
  T/C: 183 % of control
dose: 75.0 mg/kg/injection, schedule: Q04DX003 (ip), vehicle: saline
  T/C: 150 % of control
dose: 100.0 mg/kg/injection, schedule: Q01DX001 (ip), vehicle: water
  T/C: 195 % of control
dose: 100.0 mg/kg/injection, schedule: Q01DX009 (ip), vehicle: Klucel (hydroxypropylcellulose) (HPC)
  T/C: 170 % of control
dose: 100.0 mg/kg/injection, schedule: Q01DX009 (ip), vehicle: saline with Tween-80
  T/C: 159 % of control and 177 % of control and 195 % of control
dose: 100.0 mg/kg/injection, schedule: Q01DX009 (ip), vehicle: saline
  T/C: 172 % of control and 195 % of control
dose: 100.0 mg/kg/injection, schedule: Q01DX009 (ip), vehicle: water
  T/C: 210 % of control
dose: 100.0 mg/kg/injection, schedule: Q04DX002 (ip), vehicle: saline
  T/C: 163 % of control
dose: 100.0 mg/kg/injection, schedule: Q04DX003 (ip), vehicle: saline
  T/C: 153 % of control
dose: 100.0 mg/kg/injection, schedule: Q04DX003 (ip), vehicle: water
  T/C: 190 % of control
dose: 128.0 mg/kg/injection, schedule: Q01DX009 (ip), vehicle: saline
  T/C: 163 % of control
dose: 128.0 mg/kg/injection, schedule: Q01DX009 (sc), vehicle: saline
  T/C: 100 % of control
dose: 128.0 mg/kg/injection, schedule: Q03HX008 (ip), vehicle: saline
  T/C: 154 % of control
dose: 128.0 mg/kg/injection, schedule: Q03HX024 (ip), vehicle: saline
  T/C: 181 % of control
dose: 150.0 mg/kg/injection, schedule: Q01DX001 (ip), vehicle: saline
  T/C: 162 % of control
dose: 150.0 mg/kg/injection, schedule: Q01DX009 (ip), vehicle: saline
  T/C: 195 % of control
dose: 150.0 mg/kg/injection, schedule: Q04DX003 (ip), vehicle: saline
  T/C: 162 % of control
dose: 200.0 mg/kg/injection, schedule: Q01DX001 (ip), vehicle: water
  T/C: 185 % of control
dose: 200.0 mg/kg/injection, schedule: Q01DX009 (ip), vehicle: saline with Tween-80
  T/C: 86 % of control and 181 % of control and 218 % of control
dose: 200.0 mg/kg/injection, schedule: Q01DX009 (ip), vehicle: saline
  T/C: 172 % of control and 196 % of control and 204 % of control
dose: 200.0 mg/kg/injection, schedule: Q01DX009 (ip), vehicle: water
  T/C: 165 % of control
dose: 200.0 mg/kg/injection, schedule: Q04DX002 (ip), vehicle: saline
  T/C: 157 % of control
dose: 200.0 mg/kg/injection, schedule: Q04DX003 (ip), vehicle: saline
  T/C: 169 % of control and 204 % of control
dose: 200.0 mg/kg/injection, schedule: Q04DX003 (ip), vehicle: water
  T/C: 205 % of control
dose: 256.0 mg/kg/injection, schedule: Q01DX009 (sc), vehicle: saline
  T/C: 100 % of control
dose: 256.0 mg/kg/injection, schedule: Q03HX024 (ip), vehicle: saline
  T/C: 122 % of control
dose: 256.0 mg/kg/injection, schedule: Q08DX002 (ip), vehicle: saline
  T/C: 154 % of control
dose: 300.0 mg/kg/injection, schedule: Q01DX001 (ip), vehicle: saline
  T/C: 158 % of control
dose: 300.0 mg/kg/injection, schedule: Q01DX009 (ip), vehicle: saline
  T/C: 216 % of control
dose: 300.0 mg/kg/injection, schedule: Q04DX003 (ip), vehicle: saline
  T/C: 170 % of control
dose: 400.0 mg/kg/injection, schedule: Q01DX001 (ip), vehicle: water
  T/C: 170 % of control
dose: 400.0 mg/kg/injection, schedule: Q01DX009 (ip), vehicle: saline with Tween-80
  T/C: 181 % of control
dose: 400.0 mg/kg/injection, schedule: Q01DX009 (ip), vehicle: saline
  T/C: 90 % of control
dose: 400.0 mg/kg/injection, schedule: Q04DX002 (ip), vehicle: saline
  T/C: 163 % of control and 191 % of control
dose: 400.0 mg/kg/injection, schedule: Q04DX003 (ip), vehicle: saline
  T/C: 180 % of control and 190 % of control
dose: 400.0 mg/kg/injection, schedule: Q04DX003 (ip), vehicle: water
  T/C: 240 % of control
dose: 512.0 mg/kg/injection, schedule: Q01DX001 (ip), vehicle: saline
  T/C: 163 % of control
dose: 512.0 mg/kg/injection, schedule: Q01DX009 (sc), vehicle: saline
  T/C: 109 % of control
dose: 512.0 mg/kg/injection, schedule: Q08DX002 (ip), vehicle: saline
  T/C: 159 % of control
dose: 600.0 mg/kg/injection, schedule: Q01DX001 (ip), vehicle: saline
  T/C: 200 % of control
dose: 600.0 mg/kg/injection, schedule: Q01DX009 (ip), vehicle: saline
  T/C: 116 % of control
dose: 600.0 mg/kg/injection, schedule: Q04DX003 (ip), vehicle: saline
  T/C: 170 % of control
dose: 800.0 mg/kg/injection, schedule: Q04DX003 (ip), vehicle: saline
  T/C: 181 % of control
dose: 1024.0 mg/kg/injection, schedule: Q01DX001 (ip), vehicle: saline
  T/C: 109 % of control
dose: 1024.0 mg/kg/injection, schedule: Q01DX009 (sc), vehicle: saline
  T/C: 100 % of control
dose: 1024.0 mg/kg/injection, schedule: Q08DX002 (ip), vehicle: saline
  T/C: 177 % of control
dose: 2048.0 mg/kg/injection, schedule: Q01DX009 (sc), vehicle: saline
  T/C: 100 % of control
dose: 2048.0 mg/kg/injection, schedule: Q04DX003 (ip), vehicle: saline
  T/C: 109 % of control
